We go through 13 compounds from US12161722B2, “Bifunctional heterocyclic compound having BTK degradation function via ubiquitin proteasome pathway, and use thereof” (KOREA RESEARCH INSTITUTE OF CHEMICAL TECHNOLOGY, priority 2021, dated 2024).

One assay has as its target T1, C481S BTK protein (Homo sapiens, UniProt Q06187, C481S).
T1 construct: expressed in transfected cells; host or cells: 293T BTK MUT (C481S) cells
Nature of the assay: BTK protein degradation assay (Western blotting), C481S BTK. Type of assay: cell-based. The settings on record: concentration range accounting for 50% degradation of C481S BTK protein, 293T BTK MUT (C481S) cells. On the procedure: TMD-8, RAMOS, or 293T BTK MUT (C481S) cells were treated with the synthesized compounds and measured for intracellular BTK protein levels by Western blotting. The protocol of the experiment using TMD-8 cells is as follows.
The 12-well plates were treated as follows. A 10 mM stock was 1/10 diluted in series with DMSO ([…]) to form final concentrations of 10, 1, 0.1, 0.01, 0.001, and 0.0001 mM. The compounds with such concentrations were applied to cells, followed by harvesting the cells 24 hours later. For a negative control, a 1/10 dilution of DMSO in the medium (3 mL DMSO+27 mL medium) was used.
The 1-mL cell culture in each well was passed many times through a pipette and then transferred into a 1.5-mL microtube before centrifugation (500 g, 5 min, 4° C.). The supernatant was discarded and the cell pellet was washed with PBS. After centrifugation (500 g, 5 min, 4° C.) again, the supernatant was discarded and the cell pellet was taken.
A lysis buffer was prepared as follows. RIPA buffer (Biosesang, RC2038-050-00)+0.5 mM PMSF (SIGMA, P7626)+1×Protease/Phosphatase Inhibitor (Cell signaling, 5872S) was added in an amount […] per well and left for 30 minutes on ice (vortexing at 0 and 30 minutes) before sonication (5 cycles of pulse for 10 seconds and rest for 30 seconds, 70% amplification). The supernatant obtained by centrifugation (15000 g, 15 min, 4° C.) was transferred into a new microtube. Cells in each well of 96-well plates were 1/2 diluted with the RIPA buffer and incubated at 37° C. for 30 minutes with […] of a 50:1 mixture of BCA reagents A and B in BCA Protein Assay Kit (iNtRON, 21071). After being cooled for 10 minutes, the 96-well plates were measured for absorbance at 562 nm on the BioTek, SYNERGY H1 microplate reader. Samples were prepared by protein quantification based on the absorbance measurements and then boiled at 70° C. for 10 minutes. The sample buffer used in the case was prepared by mixing a NuPAGE or a Bolt 4× sample buffer (Invitrogen) and its 10× sample reducing agent depending on the gel to be used, and protein dilution was made in a RIPI buffer.
The samples were loaded in the same amount into a NuPAGE or Bolt Bis-tris 4-12% gradient gel and allowed to run therein (200 V, 35 minutes). The separated proteins were transferred onto a […] NC membrane, using Trans-blot Turbo (BIO-RAD) (1.3 A constant, 25V limit, 15 minutes). The membrane was blocked at room temperature for 1 hour with skim milk or Intercept Blocking Buffer (LI-COR, 927-60001):0.1% TBST=1:1. The membrane was incubated with Anti BTK Rabbit (1:1,000 in 5% skim milk/0.2% TBST, size: 77 kDa, Cell signaling Technology) at 4° C. overnight O/N or at room temperature for 2 hours and with Anti GAPDH Rabbit (1:10,000 in 5% BSA/0.2% TBST, size: 36 kDa, GENETEX) and Anti β-actin mouse (1:10,000 in 5% BSA/0.2% TBST, RT, size: 43 kDa, GENETEX) at room temperature for 1 or 3 hours. Then, the membrane was washed three times with 0.5% TBST for 5 minutes each time before incubation with the second antibody Anti-Rabbit IgG (1:5,000 in 5% Skim milk/TBST, CST), IRDye® 800CW Goat anti-Rabbit IgG Secondary Antibody (1:10,000 in 5% skim/TBST, RT 45 min), or IRDye® 680RD Goat anti-Mouse IgG Secondary Antibody (1:10,000 in 5% skim/TBST, RT 45 min) for 45 minutes at room temperature in a rocker. The membrane was washed five times with 0.5% TBST for 5 minutes in each time, followed by detection with LI-COR, Odyssey. In this regard, the detection proceeded, as it was, for house-keeping genes while using SuperSignal West Pico PLUS Chemiluminescent Substrate or SuperSignal West femto Maximum Sensitivity Substrate for BTK detection.
According to the concentration ranges of compounds accounting for 50% degradation of WT BTK protein and C481S BTK protein, the activities are expressed as +++(0.0001-0.01 μM), ++(0.01-1 μM), +(1-10 μM), −(>10 μM), and NT (not tested). […]
(In general: In western blotting, separated proteins are transferred to a membrane and probed.)

A further assay concerns the target T2, WT BTK protein (Homo sapiens, UniProt Q06187).
T2 construct: measured for intracellular BTK protein levels by Western blotting; endogenous in cells; host or cells: TMD-8 or RAMOS cells
Nature of the assay: BTK protein degradation assay (Western blotting), WT BTK. Type of assay: cell-based. The settings on record: concentration range accounting for 50% degradation of WT BTK protein, TMD-8 or RAMOS cells, 24 hours. Put shortly:
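BTK levels were read by Western blotting (GAPDH and β-actin normalisers) in RIPA lysates of TMD-8 cells exposed to compounds for 24 h at 1×10^6 cells/mL. Results scored in ranges of the concentration producing 50% loss of WT BTK.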

Structures are written as SMILES.

T2 sequence (Q06187 whole entry): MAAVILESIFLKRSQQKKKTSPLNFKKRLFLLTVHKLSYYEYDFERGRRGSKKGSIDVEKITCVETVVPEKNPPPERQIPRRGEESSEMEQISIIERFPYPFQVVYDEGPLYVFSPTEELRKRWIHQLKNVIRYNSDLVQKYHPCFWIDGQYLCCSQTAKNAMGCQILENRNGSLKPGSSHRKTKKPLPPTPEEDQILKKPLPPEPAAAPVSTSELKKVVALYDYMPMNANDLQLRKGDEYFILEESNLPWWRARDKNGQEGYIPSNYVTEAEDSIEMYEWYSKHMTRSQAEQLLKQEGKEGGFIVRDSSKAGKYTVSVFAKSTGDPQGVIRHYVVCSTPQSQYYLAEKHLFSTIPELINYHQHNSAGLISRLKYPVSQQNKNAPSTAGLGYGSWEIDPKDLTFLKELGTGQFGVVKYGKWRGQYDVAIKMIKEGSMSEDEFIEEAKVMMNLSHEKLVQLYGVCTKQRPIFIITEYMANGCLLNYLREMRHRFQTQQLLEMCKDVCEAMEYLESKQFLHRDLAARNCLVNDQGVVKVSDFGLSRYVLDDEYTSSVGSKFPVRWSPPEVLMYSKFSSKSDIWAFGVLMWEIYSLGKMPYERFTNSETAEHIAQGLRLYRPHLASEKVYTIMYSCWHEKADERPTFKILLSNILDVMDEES
T1 sequence (Q06187 whole entry C481S): as the sequence (Q06187 whole entry) above, with C481S counted along it

For `COCCOc1cc(C)c(Nc2nn(C)c3nc(Nc4ccc5c(c4)C(C)(C)N(C(=O)CCC(=O)Nc4ccc(OCCOCCOCCOCCNc6cccc7c6C(=O)N(C6CCC(=O)NC6=O)C7=O)cc4)CC5)ncc23)c(C)c1` (centres unmarked) [Compound 6, N-(4-(2-(2-(2-(2-((2-(2,6-Dioxopiperidin-3-yl)-1,3-dioxoisoindolin-4-yl)amino)ethoxy)ethoxy)ethoxy)ethoxy)phenyl)-4-(7-((3-((4-(2-methoxyethoxy)-2,6-dimethylphenyl)amino)-1-methyl-1H-pyrazolo[3,4-d]pyrimidin-6-yl)amino)-1,1-dimethyl-3,4-dihydroisoquinolin-2 (1H)-yl)-4-oxobutanamide], the DC50 on C481S BTK protein and on WT BTK protein was 10 to 1000 nM throughout.
`Cc1cccc(C)c1Nc1nn(C)c2nc(Nc3ccc4c(c3)CN(C(=O)CCCCCCCCCCCNc3cccc5c3C(=O)N(C3CCC(=O)NC3=O)C5=O)CC4)ncc12` (centres unmarked) [Compound 7, 4-((12-(7-((3-((2,6-Dimethylphenyl)amino)-1-methyl-1H-pyrazolo[3,4-d]pyrimidin-6-yl)amino)-3,4-dihydroisoquinolin-2 (1H)-yl)-12-oxododecyl)amino)-2-(2,6-dioxopiperidin-3-yl)isoindoline-1,3-dione]: the DC50 (in general, the concentration giving 50% degradation) at C481S BTK protein is above 10000 nM; at WT BTK protein, 0.1 to 10 nM.
On the same counts, the results for `Cc1cccc(C)c1Nc1nn(C)c2nc(Nc3ccc4c(c3)CN(C(=O)COCCOCCOCCOCCNc3ccc5c(c3)C(=O)N(C3CCC(=O)NC3=O)C5=O)CC4)ncc12` (centres unmarked) [Compound 8, 5-((14-(7-((3-((2,6-Dimethylphenyl)amino)-1-methyl-1H-pyrazolo[3,4-d]pyrimidin-6-yl)amino)-3,4-dihydroisoquinolin-2 (1H)-yl)-14-oxo-3,6,9,12-tetraoxatetradecyl)amino)-2-(2,6-dioxopiperidin-3-yl)isoindoline-1,3-dione] are 10 to 1000 nM and 0.1 to 10 nM.
For the compound `Cc1cccc(C)c1Nc1nn(C)c2nc(Nc3ccc4c(c3)CN(C(=O)COCCOCCOCCOCCNC(=O)COc3ccc5c(c3)C(=O)N(C3CCC(=O)NC3=O)C5=O)CC4)ncc12` (centres unmarked) [Compound 9, N-(14-(7-((3-((2,6-Dimethylphenyl)amino)-1-methyl-1H-pyrazolo[3,4-d]pyrimidin-6-yl)amino)-3,4-dihydroisoquinolin-2 (1H)-yl)-14-oxo-3,6,9,12-tetraoxatetradecyl)-2-((2-(2,6-dioxopiperidin-3-yl)-1,3-dioxoisoindolin-5-yl)oxy)acetamide], the values for the DC50 on C481S BTK protein and at WT BTK protein were above 10000 nM and 10 to 1000 nM, respectively.
On the same counts, the results for `Cc1cccc(C)c1Nc1nn(C)c2nc(Nc3ccc4c(c3)CN(C(=O)COCCOCCOCCOCCNC(=O)CNc3cccc5c3C(=O)N(C3CCC(=O)NC3=O)C5=O)CC4)ncc12` (centres unmarked) [Compound 10, N-(14-(7-((3-((2,6-Dimethylphenyl)amino)-1-methyl-1H-pyrazolo[3,4-d]pyrimidin-6-yl)amino)-3,4-dihydroisoquinolin-2 (1H)-yl)-14-oxo-3,6,9,12-tetraoxatetradecyl)-2-((2-(2,6-dioxopiperidin-3-yl)-1,3-dioxoisoindolin-4-yl)amino)acetamide] are above 10000 nM and 10 to 1000 nM.
On the same counts, the results for `Cc1cccc(C)c1Nc1nn(C)c2nc(Nc3ccc4c(c3)CN(Cc3cn(CCOCCOCCNC(=O)CNc5cccc6c5C(=O)N(C5CCC(=O)NC5=O)C6=O)nn3)CC4)ncc12` (centres unmarked) [Compound 11] are above 10000 nM and 0.1 to 10 nM.
The corresponding values for `Cc1cccc(C)c1Nc1nn(C)c2nc(Nc3ccc4c(c3)CN(Cc3cn(CCOCCOCCNC(=O)CNc5ccc6c(c5)C(=O)N(C5CCC(=O)NC5=O)C6=O)nn3)CC4)ncc12` (centres unmarked) [Compound 12, N-(2-(2-(2-(4-((7-((3-((2,6-Dimethylphenyl)amino)-1-methyl-1H-pyrazolo[3,4-d]pyrimidin-6-yl)amino)-3,4-dihydroisoquinolin-2 (1H)-yl)methyl)-1H-1,2,3-triazol-1-yl)ethoxy)ethoxy)ethyl)-2-((2-(2,6-dioxopiperidin-3-yl)-1,3-dioxoisoindolin-5-yl)amino)acetamide] are above 10000 nM and 10 to 1000 nM.
`Cc1cccc(C)c1Nc1nn(C)c2nc(Nc3ccc4c(c3)CN(C(=O)COCCOCCOCCOCCNc3cccc5c3C(=O)N(C3CCC(=O)NC3=O)C5=O)CC4)ncc12` (centres unmarked) [Compound 13]: the results for the DC50 at C481S BTK protein and at WT BTK protein were 1000 to 10000 nM and 0.1 to 10 nM, respectively.
On the same counts, the results for `Cc1cccc(C)c1Nc1nn(C)c2nc(Nc3ccc4c(c3)CN(C(=O)CCOCCOCCOCCOCCNc3cccc5c3C(=O)N(C3CCC(=O)NC3=O)C5=O)CC4)ncc12` (centres unmarked) [Compound 14] are above 10000 nM and 0.1 to 10 nM.
On the same counts, the results for `Cc1cccc(C)c1Nc1nn(C)c2nc(Nc3ccc4c(c3)CN(C(=O)CCOCCOCCOCCOCCNc3ccc5c(c3)C(=O)N(C3CCC(=O)NC3=O)C5=O)CC4)ncc12` (centres unmarked) [Compound 15, 5-((15-(7-((3-((2,6-Dimethylphenyl)amino)-1-methyl-1H-pyrazolo[3,4-d]pyrimidin-6-yl)amino)-3,4-dihydroisoquinolin-2 (1H)-yl)-15-oxo-3,6,9,12-tetraoxapentadecyl)amino)-2-(2,6-dioxopiperidin-3-yl)isoindoline-1,3-dione] are 1000 to 10000 nM and 0.1 to 10 nM.
On the same counts, the results for `Cc1cccc(C)c1Nc1nn(C)c2nc(Nc3ccc4c(c3)CN(C(=O)CCOCCOCCOCCOCCNC(=O)COc3ccc5c(c3)C(=O)N(C3CCC(=O)NC3=O)C5=O)CC4)ncc12` (centres unmarked) [Compound 16, N-(15-(7-((3-((2,6-Dimethylphenyl)amino)-1-methyl-1H-pyrazolo[3,4-d]pyrimidin-6-yl)amino)-3,4-dihydroisoquinolin-2 (1H)-yl)-15-oxo-3,6,9,12-tetraoxapentadecyl)-2-((2-(2,6-dioxopiperidin-3-yl)-1,3-dioxoisoindolin-5-yl)oxy)acetamide] are 1000 to 10000 nM and 0.1 to 10 nM.
As for `Cc1cccc(C)c1Nc1nn(C)c2nc(Nc3ccc4c(c3)CN(C(=O)CCOCCOCCOCCOCCNC(=O)COc3cccc5c3C(=O)N(C3CCC(=O)NC3=O)C5=O)CC4)ncc12` (centres unmarked) [Compound 17, N-(15-(7-((3-((2,6-Dimethylphenyl)amino)-1-methyl-1H-pyrazolo[3,4-d]pyrimidin-6-yl)amino)-3,4-dihydroisoquinolin-2 (1H)-yl)-15-oxo-3,6,9,12-tetraoxapentadecyl)-2-((2-(2,6-dioxopiperidin-3-yl)-1,3-dioxoisoindolin-4-yl)oxy)acetamide], the DC50 at C481S BTK protein is above 10000 nM; at WT BTK protein, 0.1 to 10 nM.
Take `Cc1cccc(C)c1Nc1nn(C)c2nc(Nc3ccc4c(c3)CN(C(=O)CCOCCOCCOCCOCCNC(=O)CN3CCN(c5ccc6c(c5)C(=O)N(C5CCC(=O)NC5=O)C6=O)CC3)CC4)ncc12` (centres unmarked) [Compound 18]: the DC50 on C481S BTK protein is above 10000 nM; at WT BTK protein, 0.1 to 10 nM.
